Results taken from ChEMBL document CHEMBL5726902, “Heterocyclic kinase inhibitors” (2019).
pIC50: −log10 of the molar value.

target: Macrophage colony-stimulating factor 1 receptor (Homo sapiens, UniProt P07333); experiment: In Vitro CSF-1R Kinase Activity: The CSF-1R construct corresponds to recombinant human catalytic domain (aa 538-910), which was purchased from Invitrogen (cat #PV4092). CSF-1R was mixed with peptide substrate (biotin-TYR1, Sequence: Biotin-(Ahx)-GAEEEIYAAFFA-COOH, 4 μM final) at varying inhibitor concentrations in reaction buffer: 50 mM MOPSO pH 6.5, 10 mM MgCl2, 2 mM MnCl2, 2.5 mM DTI, 0.01% BSA, 0.1 mM Na3VO4 and 0.1 mM ATP. After about 60 min incubation at rt, the reaction was quenched by addition of EDTA (final concentration: 100 mM) and developed by addition of detection reagents (final approximate concentrations: 30 mM HEPES pH 7.0, 0.06% BSA, 0.006% Tween-20, 0.24 M KF, 80 ng/mL PT66K (europium labeled anti-phosphotyrosine antibody cat #61T66KLB Cisbio, Bedford, Mass.) and 0.6 μg/mL SAXL (Phycolink streptavidin-allophycocyanin acceptor, cat #PJ25S, Prozyme, San Leandro, Calif.). The developed reaction was incubated in the dark for about 60 min at rt, then read via a time-resolved fluorescence detector (Rubystar, BMG) using a 337 nm laser for excitation and monitoring emission wavelength at 665 nm. Within the linear range of the assay, the observed signal at 665 nm was directly related to phosphorylated product and can be used to calculate the IC50 values.
Sequence (P07333 whole entry, the tested form may be a part): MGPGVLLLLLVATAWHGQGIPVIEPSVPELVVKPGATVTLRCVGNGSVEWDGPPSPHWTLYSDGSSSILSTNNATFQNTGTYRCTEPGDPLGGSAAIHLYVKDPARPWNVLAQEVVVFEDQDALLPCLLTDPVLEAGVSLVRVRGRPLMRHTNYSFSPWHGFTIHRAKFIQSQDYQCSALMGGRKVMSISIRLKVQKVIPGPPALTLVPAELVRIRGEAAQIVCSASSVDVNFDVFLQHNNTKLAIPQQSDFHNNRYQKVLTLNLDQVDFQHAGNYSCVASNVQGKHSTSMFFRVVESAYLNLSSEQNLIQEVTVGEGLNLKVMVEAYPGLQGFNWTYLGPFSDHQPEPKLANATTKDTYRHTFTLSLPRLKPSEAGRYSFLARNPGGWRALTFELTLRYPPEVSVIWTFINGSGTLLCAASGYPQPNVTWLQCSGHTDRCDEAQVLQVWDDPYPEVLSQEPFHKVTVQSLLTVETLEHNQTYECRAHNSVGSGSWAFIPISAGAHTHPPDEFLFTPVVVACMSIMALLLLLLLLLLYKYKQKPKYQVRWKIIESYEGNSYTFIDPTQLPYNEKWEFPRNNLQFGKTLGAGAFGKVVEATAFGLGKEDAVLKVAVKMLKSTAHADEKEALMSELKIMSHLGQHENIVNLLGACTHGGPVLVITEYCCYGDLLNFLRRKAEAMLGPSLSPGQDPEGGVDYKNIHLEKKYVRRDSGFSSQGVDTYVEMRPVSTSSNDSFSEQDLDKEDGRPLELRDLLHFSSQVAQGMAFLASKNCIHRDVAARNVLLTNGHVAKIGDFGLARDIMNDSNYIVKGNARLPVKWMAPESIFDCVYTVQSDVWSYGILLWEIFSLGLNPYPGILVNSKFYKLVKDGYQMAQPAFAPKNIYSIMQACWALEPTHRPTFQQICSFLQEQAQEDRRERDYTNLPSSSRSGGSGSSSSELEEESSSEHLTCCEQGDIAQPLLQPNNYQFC

| Structure (SMILES) | pIC50 |
| --- | --- |
| O[C@H]1CC[C@H](n2cc(Nc3nc(C4CCCCC4)cn4ncnc34)cn2)CC1 | > 7.00 |
| O[C@H]1CC[C@@H](n2cc(Nc3nc(C4CCCCC4)cn4ncnc34)cn2)CC1 | > 7.00 |
| CC1(C)CC(n2cc(Nc3nc(C4CCCCC4)cn4ncnc34)cn2)CC(C)(C)O1 | > 7.00 |
